Values of other authors, collected in article PMC3563429 (Journal of the American Chemical Society, 2013).

System: human calpain protease 1
Conditions: for inhibitory action against the cysteine protease calpain 1: described in the patent literature; for IC50: read-out: IC50 against human calpain protease 1, previously reported

Row | Molecule | inhibitory action against the cysteine protease calpain 1 | IC50 [nM]
1 | CCCCCC/C=C\CC(=O)N[C@@H](Cc1ccc(O)cc1)[C@@H](O)CC(=O)N[C@H](C(=O)N[C@@H](CO)[C@@H](O)CC(=O)N[C@H](C(=O)N[C@@H]1C=CC(=O)N[C@@H](C(C)C)C(=O)N(C)[C@@H](Cc2ccc(O)cc2)C(=O)OC1)C(C)C)C(C)C [Compound 12, thalassospiramide B1] | nanomolar inhibitory action | 80
2 | Thalassospiramide D1 [Thalassospiramide D1 (15)] | nanomolar inhibitory action | 39
